This is an account of results in publication PMC3628851, “Combined Approaches for Drug Design Points the Way to Novel Proline Racemase Inhibitor Candidates to Fight Chagas’ Disease” (PLoS ONE, 2013).

The subject of series [1] is T. cruzi. The series can be described thus: Vero cell infection by T. cruzi, total parasite numbers/culture by capture ELISA. It is filed as cell-based, Trypanosoma cruzi. The method, then:
(§1) Cell culture-derived trypomastigotes from T. cruzi CL Brener (clone F11-F5) were isolated from the supernatant of bulk cultures of green monkey Vero kidney cells previously infected with bloodstream trypomastigotes. Known numbers of parasites, adherent infected cells and uninfected cell controls were lysed with 0.1 mL of 0.05% Tween 20 solution in sterile distilled water and the lysates were frozen. Vero cells were seeded in LabTek slides (5×10^4 cells/well) in RPMI 1640 medium/5% FCS and kept at 37°C, 5% CO2. […] To test the effect of the inhibitors on the parasite intracellular cycle, cultures were infected at 37°C for 17 hours without inhibitors, washed three times to eliminate extracellular parasites then incubated for up to 48 hours with fresh medium containing different dilutions of the compounds. All cultures were then washed with PBS, fixed and stained with Giemsa. The number of infected host cells was recorded along with the number of parasites per infected cell in at least 400 host cells, in duplicate experiments. Results were expressed as the endocytic index (EI) resulting from the product of the percentage of infected cells and the mean number of parasites per infected cell. Control cultures were incubated in medium alone or with equal DMSO concentrations.
Flat-bottomed microtiter plates (Nunc, Denmark) were coated overnight at 4°C with rabbit anti-T. cruzi polyclonal antibodies and further blocked for 4 h at room temperature (RT) with 1% BSA, 0.05% Tween 20 in PBS. After washings, lysate samples from infected or control Vero cultures, or from T. cruzi, were then added and incubated at 4°C for 18 h. Plates were washed with PBS-Tween and incubated for 2 h at RT with polyclonal mouse anti-T. cruzi chronic serum, washed again and incubated for 1 h at RT with HRP-secondary antibodies. […] Optical densities were determined in a spectrophotometer at 450 nm and 650 nm, and analyzed by Softmax Pro software.
(§2) To verify the potential of these new PRAC inhibitors as lead compounds in drug design strategies, we compared their effects on cultures of host Vero cells infected or not with T. cruzi, with that of PYC. […] To determine whether the treatment of these cultures with the new compounds would indeed affect intracellular TcPRAC and as such interfere with parasite intracellular fate cells were then washed after parasite uptake and the same ligand concentrations as above (10 µM − 30 µM) were added to the cultures in fresh medium. The degree of infection was determined over 48 hours by capture ELISA. As expected, the number of parasites per well decreased in a dose-dependent manner (Figure 7). In vitro and in vivo experiments using mutant parasites that carry the luciferase gene are now in progress to support those data.
Total parasite numbers/culture were estimated by capture ELISA.
(In general: ELISA stands for enzyme-linked immunosorbent assay.)

The next series has as its system non infected Vero cells. The experiment in a line: Viability of non infected Vero cells. It is filed as cell-based, green monkey. The settings on record: 3, 10 and 30 µM. The method, then:
Cell culture-derived trypomastigotes from T. cruzi CL Brener (clone F11-F5) were isolated from the supernatant of bulk cultures of green monkey Vero kidney cells previously infected with bloodstream trypomastigotes. Known numbers of parasites, adherent infected cells and uninfected cell controls were lysed with 0.1 mL of 0.05% Tween 20 solution in sterile distilled water and the lysates were frozen. Vero cells were seeded in LabTek slides (5×10^4 cells/well) in RPMI 1640 medium/5% FCS and kept at 37°C, 5% CO2. […] The number of infected host cells was recorded along with the number of parasites per infected cell in at least 400 host cells, in duplicate experiments. Results were expressed as the endocytic index (EI) resulting from the product of the percentage of infected cells and the mean number of parasites per infected cell. […]
To verify the potential of these new PRAC inhibitors as lead compounds in drug design strategies, we compared their effects on cultures of host Vero cells infected or not with T. cruzi, with that of PYC. […] The degree of infection was determined over 48 hours by capture ELISA. […]

The test system of series [2] is T. cruzi. The series can be described thus: Vero cell infection by T. cruzi trypomastigotes, endocytic index (Giemsa count). The format is cell-based, Trypanosoma cruzi. The settings on record: for Endocytic index (EI): added with parasites, 17 h, Vero cells. The method, then: as §1, with “cultures were infected at 37°C for 17 hours without inhibitors, washed three times to eliminate extracellular parasites then incubated for up to 48 hours with fresh medium containing” left out
as §2

Series [3] addresses T1, TcPRAC (Trypanosoma cruzi, UniProt Q4DA80).
T1 construct: His tag (inferred from nickel IMAC purification); made in house; host or cells: E. coli BL21 (DE3)
The experiment in a line: TcPRAC inhibition by PYC derivatives (polarimetry and DAAO methodologies). It is filed as biochemical. The method, then:
Recombinant Trypanosoma cruzi proline racemase (EC 5.1.1.4) was produced in E. Coli BL21 (DE3) (Invitrogen) and purified by immobilized metal affinity chromatography on nickel columns, as previously described.
(§3) Optimum Proline racemization conditions for TcPRAC were determined using 10–300 mM L-Proline in 0.2 M NaOAc over a range of pH values, as described and L- to D- proline conversion took place in 1.5 mL reaction. Concentrations of D-proline formed were determined by optical rotation of the solution at 365 nm in a 10 cm optical path cell, thermostated at 37°C, using a polarimeter (Perkin Elmer 241 MC). Assays were also performed into microtiter plates (100 µL), as follows: dilutions of L- Proline (40 mM to 2.5 mM) in 0.2 M sodium acetate pH 6.0 and 0.25 mM TcPRAC were loaded into microtiter plate wells with 0–20 µM PYC or similar concentrations of potential inhibitors. Controls omitted TcPRAC and/or PYC. The microtiter plates were incubated for 30 minutes at 37°C. The enzyme was inactivated by heating in a microwave oven for 15 s at 900 Watts and shifting the pH to 8.3 by adding 6.8 µL of 0.235 M sodium pyrophosphate. The presence of D-Proline was tested in 50 µL from each well using the D-amino oxidase - Horse Radish Peroxidase/OPD combined test. Interference caused by the possible reactivity of amino acid L-forms with DAAOx was taken into account by using standards consisting of serial dilutions of an equimolar mixture of D- and L-proline ranging from 0 to 10 mM (10 mM total). For instance, DAAOx reacts with L-Proline 300 times slower than with D-Proline. Optical densities, OD490 nm – OD650 nm were recorded on a microtiter plate reader (Molecular Devices), and the signals from the blank control wells were deducted.

The target in series [4] is T1, TcPRAC. The series can be described thus: Inhibition of TcPRAC proline racemization measured by polarimetry. The format is biochemical. The method, then:
as §3
(§4) Only two novel TcPRAC inhibitors, both provided by the CN, were identified among these (Figure 4B).

In series [5] the target is T1, TcPRAC. The series can be described thus: Kinetics of D-proline formation with time / enzyme inactivation (polarimetry). It is filed as biochemical. The settings on record: for mode of TcPRAC inhibition: pre-incubation 5 or 10 min, 15 fold dilution, 300 mM L-proline. The method, then: Kinetic reaction assays using fixed amounts of dimeric PRAC (22 µg –0.24 µM final), 40 mM substrate and 10 µM of the identified inhibitors were performed to characterize their effect on enzymatic activity (Figure 5). […] To further characterize the mode of action of this two molecules, the enzyme was pre-incubated (concentration 22 µg − 3,6 µM) with different concentration of inhibitor, for 5 or 10 min to determine inhibition dependence to inhibitor concentration and pre-incubation time. Then, the reaction mixture was diluted 15 fold and residual activity was determined in an excess of substrate (300 mM of L- proline).
Figure 5 Kinetics of D-proline formation with time in the presence or absence of TcPRAC inhibitors. (A) Concentrations of D-proline formed were determined by polarimetry in reaction assays containing 0.15 µM of TcPRAC and 40 mM L proline (see Material and Methods).

The target of series [6] is T1, TcPRAC. The series can be described thus: DAAOx test of D-proline formed by TcPRAC. The format is biochemical. The note with it: for D-Proline formed: inhibitor 10 µM, without inhibitor 5.0 µM. The procedure: as §3, §4
The nature of another series: Solubility (qualitative). The format is physicochemical. The settings on record: for Solubility: solvent in which the compound is soluble, qualitative.
Series [7] concerns the target T1, TcPRAC. The settings on record: cited from earlier work.
[8] abbreviates: read-out: Racemization Inhibition.
The mark [9] stands for this setting: 10 µM inhibitor, 40 mM substrate, 0.24 µM PRAC.
[10] abbreviates: classical Michaelian approaches.

Where two headings read alike, the source gives them in different places.

T1 sequence (Q4DA80 32-423): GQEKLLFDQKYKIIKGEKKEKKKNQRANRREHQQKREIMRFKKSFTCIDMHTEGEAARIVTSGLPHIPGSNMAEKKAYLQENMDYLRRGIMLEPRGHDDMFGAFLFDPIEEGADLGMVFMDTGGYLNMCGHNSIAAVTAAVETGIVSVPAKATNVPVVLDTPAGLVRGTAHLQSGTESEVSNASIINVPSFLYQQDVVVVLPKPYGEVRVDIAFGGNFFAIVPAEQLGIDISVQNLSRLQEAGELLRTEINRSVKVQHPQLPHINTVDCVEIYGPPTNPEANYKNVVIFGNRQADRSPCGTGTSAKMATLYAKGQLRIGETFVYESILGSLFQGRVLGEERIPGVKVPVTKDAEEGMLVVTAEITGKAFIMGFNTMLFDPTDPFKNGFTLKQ

Regarding `O=C(O)/C=C/C(=O)CBr` [Br-OxoPA, (E)-5-bromo-4-oxopent-2-enoic acid], the “percentage in Figure 7 (effect on total parasite numbers/culture, capture ELISA)” value with T. cruzi [1] (5 µM) amounted to 24%; in the series with T. cruzi [1] (10 µM), 34%; with T. cruzi [1] (30 µM) it was 39%. Further, in the series on non infected Vero cells, the “viability of non infected Vero cells” value is reported as “neither OxoPA nor Br-OxoPA considerably affected the viability”. Besides, the “lower dose than PYC necessary to obtain the same endocytic index” value in the series on T. cruzi [2] (1000 µM PYC equivalent to 10 µM OxoPA or 30 µM Br-OxoPA) is 30 fold. Moreover, the “Endocytic index (EI)” value came to 78 in the series on T. cruzi [2] (inhibitor 3 µM), 42 with T. cruzi [2] (inhibitor 10 µM) and 29 in the series with T. cruzi [2] (inhibitor 30 µM). Moreover, the “more potent than PYC in inhibiting TcPRAC” value at TcPRAC [3] came out at 4 fold. Further, the IC50 (usually the midpoint of a concentration-inhibition curve) against TcPRAC [4] came to 2.5 µM. Moreover, the inhibition (in general, the percentage by which the read-out fell short of the control) at 2.5 µM on TcPRAC [4] (setting [8]) was determined as 50%. Also, on TcPRAC [4] (setting [8]), the inhibition at 10 µM turned out to be 81.3%. The “time at which plateau of enzyme inactivation is reached” value at TcPRAC [5] (setting [9]) is 250 s. For the same compound, the “mode of TcPRAC inhibition” value at TcPRAC [5] is given as “irreversible”. Moreover, the “inhibition of conversion of L- into D-proline relative to PYC” value at TcPRAC [6] (equivalent concentrations, DAAOx test) was “more than 5 times”. Also, the D-Proline formed at TcPRAC [6] is reported as less than 0.3 µM. For the same compound, in “Solubility (qualitative)”, the “solubility in water” value was “soluble”.

In the case of `O=C(O)c1n[nH]cc1Br` [Br-PZC, 4-bromo-1H-pyrazole-3-carboxylic acid], the inhibitory constant (Ki) – broadly, a dissociation constant, usually derived from enzyme kinetics or from competition with a known ligand – is 1000 µM on TcPRAC [3] (setting [10]) and approximately 1000 µM on TcPRAC [3] (values in text). For the same compound, the Solubility entry in the series “Solubility (qualitative)” is reported as “Water”.

Take `O=C(O)c1n[nH]cc1Cl` [Cl-PZC, 4-chloro-1H-pyrazole-3-carboxylic acid]: the inhibition constant Ki at TcPRAC [3] (setting [10]) is 300 µM; on TcPRAC [3] (values in text), approximately 300 µM. In addition, the Solubility entry in “Solubility (qualitative)” was “Water”.

Take `CCc1c[nH]nc1C(=O)O` [Et-PZC, 4-Ethyl-pyrazole-3-carboxylic acid]: the inhibitory constant (Ki) on TcPRAC [3] (setting [10]) is more than 2000 µM. Also, the Solubility entry in the series “Solubility (qualitative)” was “Water”.

With `Cc1[nH]nc(C(=O)O)c1Cl` [M-Cl-PZC, 4-chloro-5-methyl-1H-pyrazole-3-carboxylic acid], the Ki at TcPRAC [3] (setting [10]) was more than 2000 µM. The Solubility result in “Solubility (qualitative)” was “Ethanol”.

For the compound `CC(=O)/C=C/C(=O)O` [OxoPA, (E)-4-oxopent-2-enoic acid], the “percentage in Figure 7 (effect on total parasite numbers/culture, capture ELISA)” value in the series with T. cruzi [1] (5 µM) was found to be 9%; with T. cruzi [1] (10 µM), 14%; in the series on T. cruzi [1] (30 µM) it was 15%. For the same compound, in the series with non infected Vero cells, the “viability of non infected Vero cells” value is on record as “neither OxoPA nor Br-OxoPA considerably affected the viability”. For the same compound, the “more potent than PYC in inhibiting TcPRAC” value on TcPRAC [3] came to 2 fold. This compound also showed an IC50 against TcPRAC [4] of 3 µM. Also, the inhibition at 3 µM on TcPRAC [4] (setting [8]) was 50%. For the same compound, the “time at which plateau of enzyme inactivation is reached” value at TcPRAC [5] (setting [9]) is 350 s. In addition, the “mode of TcPRAC inhibition” value on TcPRAC [5] was “irreversible”. The same compound yielded a D-Proline formed on TcPRAC [6] of less than 0.3 µM.

For the compound `O=C(O)c1ccc[nH]1` [PYC, 2-pyrrolecarboxylic acid, reference compound], the “percentage in Figure 7 (effect on total parasite numbers/culture, capture ELISA)” value is 4% in the series with T. cruzi [1] (10 µM), 2% in the series on T. cruzi [1] (100 µM) and 0% in the series with T. cruzi [1] (1 mM). Moreover, the “mode of TcPRAC inhibition” value at TcPRAC [7] was “classical competitive and reversible”. Also, the “Endocytic index (EI)” value turned out to be 44 in the series with T. cruzi [2] (inhibitor 10 µM), 30 in the series with T. cruzi [2] (inhibitor 100 µM) and 25 in the series with T. cruzi [2] (inhibitor 1000 µM). The Ki on TcPRAC [3] (setting [10]) fell in the range of 6 to 10 µM. On TcPRAC [4], it took 10 µM to reach half-maximal inhibition (IC50). Further, the inhibition at 10 µM on TcPRAC [4] (setting [8]) came to 56.9%. Moreover, the “racemization speed of L-proline, % of original speed” value on TcPRAC [5] (setting [9]) is reported as approximately 37%. Moreover, at TcPRAC [6], the D-Proline formed was 2.4 µM (IC50). In the series “Solubility (qualitative)”, the “solubility in water” value is “water-insoluble”. The Solubility result in the series “Solubility (qualitative)” is recorded as “Ethanol”.

`O=C(O)c1cc[nH]n1` [PZC, 1H-pyrazole-3-carboxylic acid] yielded a Ki on TcPRAC [3] (setting [10]) of more than 2000 µM. Also, the Solubility entry in “Solubility (qualitative)” was “Water”.
